In paper PMC7392643, “Antibiotic fidaxomicin is an RdRp inhibitor as a potential new therapeutic agent against Zika virus” (BMC Medicine, 2020):
Like-named read-outs stand apart in the source and are kept apart here.

Experiments:
[1] = in vivo, po; cited from earlier work
ZIKV NS5 polymerase = target: T1, ZIKV NS5 polymerase (Zika virus, UniProt A0A024B7W1); test: Polymerase activity assay (non-radioactive primer extension); type: biochemical; settings: NS5 20 nM, Primer/Template 10 nM, 2 h at 37 °C, quantified by amount of RNA products; read-out: IC50 of RdRp-catalyzed RNA synthesis
T1 construct: NS5 (amino acids 1 to 903); His tag (8x histidine) (N); made in house; host or cells: Escherichia coli (Rosetta)
T1 sequence (A0A024B7W1 2521-3423): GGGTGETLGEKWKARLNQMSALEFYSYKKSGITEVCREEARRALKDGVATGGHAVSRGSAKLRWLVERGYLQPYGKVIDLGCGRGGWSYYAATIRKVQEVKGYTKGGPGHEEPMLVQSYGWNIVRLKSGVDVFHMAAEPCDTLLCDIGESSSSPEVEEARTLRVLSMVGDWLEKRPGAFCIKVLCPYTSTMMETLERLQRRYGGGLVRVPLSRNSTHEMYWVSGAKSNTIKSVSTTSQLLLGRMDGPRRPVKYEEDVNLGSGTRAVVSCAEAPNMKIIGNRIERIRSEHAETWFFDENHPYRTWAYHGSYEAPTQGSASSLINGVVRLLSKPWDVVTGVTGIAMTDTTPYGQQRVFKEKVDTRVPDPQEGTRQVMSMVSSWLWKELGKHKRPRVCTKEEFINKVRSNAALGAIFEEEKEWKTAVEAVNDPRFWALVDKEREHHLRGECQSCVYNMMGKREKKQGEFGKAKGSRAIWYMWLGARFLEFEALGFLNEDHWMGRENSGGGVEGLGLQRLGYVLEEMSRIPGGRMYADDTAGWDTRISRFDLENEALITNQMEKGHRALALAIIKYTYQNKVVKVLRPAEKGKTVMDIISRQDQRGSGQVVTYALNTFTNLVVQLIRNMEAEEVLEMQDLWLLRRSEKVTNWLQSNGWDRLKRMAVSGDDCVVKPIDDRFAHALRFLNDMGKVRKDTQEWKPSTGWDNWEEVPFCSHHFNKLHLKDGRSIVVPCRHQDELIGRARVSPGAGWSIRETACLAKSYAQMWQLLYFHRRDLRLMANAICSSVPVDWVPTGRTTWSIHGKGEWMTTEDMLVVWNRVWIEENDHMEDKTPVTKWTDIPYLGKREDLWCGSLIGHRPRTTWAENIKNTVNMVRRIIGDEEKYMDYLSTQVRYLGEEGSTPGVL
Procedure: ZIKV NS5 polymerase activity was determined using a primer extension reaction with a fluorescently labeled RNA primer/RNA template complex (P/T) as described by Lu et al.. Briefly, fluorescently labeled oligonucleotide primer (Cy5-RNA) and unlabeled RNA template were mixed and then slowly cooled down for annealing. A typical primer extension reaction was performed by ZIKV NS5 polymerase at various concentrations, followed by incubation for 2 h at 37 °C. To determine the inhibitory activity of fidaxomicin, the polymerase reactions were initiated by addition of fidaxomicin at gradient concentrations ranging between 0 and 200 μM. The products were detected by denaturing polyacrylamide gel electrophoresis (Urea PAGE), and the results were scanned using an Odyssey infrared imaging system (LI-COR Biosciences, Lincoln, NE). The images were analyzed, and proper RNA bands were quantified using Image J software version 1.52a (NIH, Bethesda, MD, USA).

[2] = set-up: method as in PMID 22752858; settings: rats; cited from earlier work
DENV2 (NGC) = test: In vitro anti-DENV assay, RT-qPCR; type: cell-based, Dengue-2 virus; settings: Dengue virus
ZIKV MR766 strain = test: In vitro antiviral assay, plaque assay, ZIKV MR766; type: cell-based; settings: Zika virus, 48 h
Procedure: Various cell lines, including SNB19 (6 × 10^4/well, 10% FBS DMEM), A172 (7 × 10^4/well, 10% FBS DMEM), Vero (6 × 10^4/well 10% FBS DMEM), Huh7 (7 × 10^4/well, 10% FBS DMEM), HUVECs (7 × 10^4/well, 15% FBS M199 medium supplemented with 2 mM L-glutamine, 0.02 mg/mL endothelial cell growth supplement, and 0.05 mg/mL heparin), and A549 (6 × 10^4/well, 5% FBS DMEM), were plated in 12-well plates and allowed to attach overnight, followed by infection with ZIKV (ZG-01 strain or MR766 strain, respectively, at indicated MOI) in the presence of different concentrations of fidaxomicin, ribavirin, or vehicle control for 1 h, followed by two washes with 1 × PBS and incubated with fresh medium (without virus) consisting of corresponding concentrations of the compounds for further 48 h. The cell supernatants were collected to quantify ZIKV infection by plaque assay as previously described [47] or by RT-qPCR.

ZIKV ZG-01 strain = test: In vitro antiviral assay, RT-qPCR, ZIKV ZG-01; type: cell-based; settings: Zika virus
Procedure: The anti-ZIKV activity of fidaxomicin and ribavirin was evaluated in vitro by plaque assay. Various cell lines, including SNB19 (6 × 10^4/well, 10% FBS DMEM), A172 (7 × 10^4/well, 10% FBS DMEM), Vero (6 × 10^4/well 10% FBS DMEM), Huh7 (7 × 10^4/well, 10% FBS DMEM), HUVECs (7 × 10^4/well, 15% FBS M199 medium supplemented with 2 mM L-glutamine, 0.02 mg/mL endothelial cell growth supplement, and 0.05 mg/mL heparin), and A549 (6 × 10^4/well, 5% FBS DMEM), were plated in 12-well plates and allowed to attach overnight, followed by infection with ZIKV (ZG-01 strain or MR766 strain, respectively, at indicated MOI) in the presence of different concentrations of fidaxomicin, ribavirin, or vehicle control for 1 h, followed by two washes with 1 × PBS and incubated with fresh medium (without virus) consisting of corresponding concentrations of the compounds for further 48 h. The cell supernatants were collected to quantify ZIKV infection by plaque assay as previously described or by RT-qPCR. […] The anti-DENV activity of fidaxomicin was evaluated in vitro by RT-qPCR.
RNA from cell supernatants or from mouse tissues (brain and testis) was prepared with RaPure Viral RNA/DNA Kit (Magen, Guangzhou, China) according to the manufacturer’s instructions. The first-strand cDNA was synthesized using random hexamer primers with the Revert Aid Reverse Transcription Kit (Thermo Fisher Scientific, Rockford, IL, USA), and real-time PCR was carried out by using LightCycler® 480 Probes Master (2× reaction mix buffer including DNA polymerase) (no. 04887301001, Roche, Basel, Switzerland). Virus concentration was determined by interpolation onto an internal standard curve made up of a 7-point dilution series of in vitro transcribed RNA and tissue weight to quantify ZIKV RNA as copies/gram tissue. Primer sets used for real-time PCR are shown in Additional file 1: Table S1. Reverse transcription and real-time PCR were performed for at least three times.

[3] = target: T2, ZIKV NS5 full-length protein (Zika virus, UniProt A0A024B7W1); test: SPR (BIAcore) binding to ZIKV NS5 full-length protein
T2 construct: NS5 (amino acids 1 to 903); His tag (8x histidine) (N); made in house; host or cells: Escherichia coli (Rosetta)
T2 sequence (A0A024B7W1 2521-3423): as above
Procedure: (§1) The cDNA fragment of ZIKV (ZG-01 strain) NS5 (amino acids 1 to 903), RdRp (amino acids 272 to 903), or DENV2 NS5 (amino acids 1 to 900) containing an N-terminal His tag sequence was cloned into a pET-30a-mutant vector. For protein expression, the plasmids were transformed into Rosetta™ competent cells (TIANGEN BIOTECH Co., Ltd., Beijing, China), respectively. […] Mass spectrometry was performed by Shanghai Applied Protein Technology Co. Ltd. (Shanghai, China). The concentration of a targeted protein was measured by SDS-PAGE using BSA (Sigma, St. Louis, MO) as a standard.
(§2) Surface plasmon resonance (SPR) experiments were performed in a BIAcore T100 device (BIAcore Inc., Uppsala, Sweden) using CM5 sensor chips (General Electric Company, GE) according to the protocol provided by the manufacturer. Briefly, recombinant ZIKV NS5 protein, RdRp protein, or DENV2 NS5 protein was immobilized on a CM5 chip, respectively. Different concentrations of fidaxomicin or ribavirin were injected at a flow rate of 30 μL/min for 3 min. Subsequently, data were collected for a 3-min association followed by a 20-min dissociation. The chip was regenerated by injecting 10 μL of 15 mM NaOH for 20 s. […] The binding kinetics was analyzed with the software BIAevaluation version 3.1 using a 1:1 Langmuir binding model. The Kd was calculated as previously described.

DENV2 NS5 protein = target: T3, DENV2 NS5 protein (Dengue virus type 2, UniProt P14340); test: SPR (BIAcore) binding to DENV2 NS5 protein; settings: qualitative
T3 construct: DENV2 NS5 (amino acids 1 to 900); His tag (N); made in house
Procedure: as §1, §2

CCc1c(Cl)c(O)c(Cl)c(O)c1C(=O)O[C@H]1[C@H](O)[C@H](OC)[C@H](OC/C2=C\C=C\C[C@H](O)/C(C)=C/[C@H](CC)[C@@H](O[C@@H]3OC(C)(C)[C@@H](OC(=O)C(C)C)[C@H](O)[C@@H]3O)/C(C)=C/C(C)=C/C[C@@H]([C@@H](C)O)OC2=O)O[C@@H]1C [Fidaxomicin]
absorption through the gastrointestinal tract [1]: minimally absorbed
plasma concentration [1]: nanogram-per-milliliter scale
IC50 (ZIKV NS5 polymerase): 10.9 µM
No Observed Adverse Effect Level (NOAEL) [2]: 62.5 mg/kg
EC50 (DENV2 (NGC); DENV2, A549 cells): 9.9 ± 2.5 µM
EC90 (DENV2 (NGC); DENV2, A549 cells): 18 ± 4.2 µM
EC50 (DENV2 (NGC); DENV2, SNB-19, SNB19 cells): 6.8 ± 1.5 µM
EC90 (DENV2 (NGC); DENV2, SNB-19, SNB19 cells): 10.6 ± 2.1 µM
EC50 (ZIKV MR766 strain; A549 cells): 13 ± 4.4 µM
EC90 (ZIKV MR766 strain; A549 cells): 42.2 ± 4.6 µM
EC50 (ZIKV MR766 strain; Huh-7, Huh7 cells): 7.3 ± 2.5 µM
EC90 (ZIKV MR766 strain; Huh-7, Huh7 cells): 16.2 ± 3.9 µM
EC50 (ZIKV MR766 strain; SNB-19, SNB19 cells): 6.8 ± 1.2 µM
EC90 (ZIKV MR766 strain; SNB-19, SNB19 cells): 9.5 ± 1.5 µM
EC50 (ZIKV MR766 strain; Vero cells): 12.4 ± 3 µM
EC90 (ZIKV MR766 strain; Vero cells): 45.2 ± 6.2 µM
EC50 (ZIKV ZG-01 strain; A 172, A172 cells, viral RNA copy number by RT-qPCR): 8.8 ± 1.9 µM
EC90 (ZIKV ZG-01 strain; A 172, A172 cells, viral RNA copy number by RT-qPCR, read-out: EC90): 11.8 ± 1.4 µM
EC90 (ZIKV ZG-01 strain; HUVEC): 23.2 ± 3 µM
EC50 (ZIKV ZG-01 strain; HUVEC, HUVECs, viral RNA copy number by RT-qPCR): 14.5 ± 1.2 µM
EC50 (ZIKV ZG-01 strain; Huh-7, Huh7 cells, viral RNA copy number by RT-qPCR): 11.1 ± 1.6 µM
EC90 (ZIKV ZG-01 strain; Huh-7, Huh7 cells, viral RNA copy number by RT-qPCR, read-out: EC90): 21.6 ± 1 µM
EC50 (ZIKV ZG-01 strain; SNB-19, SNB19 cells, viral RNA copy number by RT-qPCR): 9.2 ± 2.4 µM
EC90 (ZIKV ZG-01 strain; SNB-19, SNB19 cells, viral RNA copy number by RT-qPCR, read-out: EC90): 17.3 ± 4.8 µM
EC50 (ZIKV ZG-01 strain; A549 cells, viral RNA copy number by RT-qPCR): 13 ± 3.3 µM
EC90 (ZIKV ZG-01 strain; A549 cells, viral RNA copy number by RT-qPCR, read-out: EC90): 17.8 ± 5.3 µM
EC50 (ZIKV ZG-01 strain; Vero cells, viral RNA copy number by RT-qPCR): 12.5 ± 2.2 µM
EC90 (ZIKV ZG-01 strain; Vero cells, viral RNA copy number by RT-qPCR, read-out: EC90): 52.1 ± 5.5 µM
Kd [3]: 18.1 µM
binding to DENV2 NS5 protein (SPR) (DENV2 NS5 protein): affinity
